Results taken from patent US10543160B2, “Cosmetic composition including water soluble scrub particles containing polypeptide and/or cell culture” (PAEAN AESTHETICS INC., priority 2015, dated 2020).

System: 3T3 fibroblasts
Test: Measurement of EGF activities using 3T3 fibroblasts, corrected to NIBSC EGF standard product
Assay type: cell-based
Conditions: recombinant EGF of purity 90% or more
Experimental: According to an embodiment of the present invention, the EGF may be an EGF which is prepared from a recombinant E. coli or a plant and is purified to a purity of 90% or more.

epidermal growth factor [EGF, peptide of 6,200 Da with 53 amino acid residues, prepared from recombinant E. coli or a plant, purity 90% or more]
EGF activity per mg: one million
